Assay results as given in patent US20230256059A1, “COMPOSITIONS FOR TREATING RESPIRATORY TRACT INFECTION AND USES THEREOF” (Lateral IP Pty Ltd, priority 2020, published 2023).
Read-outs that look alike come from different tables or passages of the source. Bridge positions count the residues as written; N and C are the ends. Peptide text beside a SMILES is read from it.

Assays:
BAL cells = format: in vivo, C57BL/6 mice; conditions: day 4 post-infection
HKx31 (H3N2) IAV [1] = assay: Titres of infectious virus in lung homogenates by standard plaque assay on MDCK cells; format: in vivo, C57BL/6 mice; conditions: day 4 post-infection; for reduction in levels of infectious virus in lung tissues: daily therapeutic 20 mg/kg intranasal from day 1
Experimental: (§1) For virus infection studies, groups of 8 male C57BL/6 mice were randomized. […] Bronchoalveolar lavage (BAL) fluid was immediately obtained following euthanisation by flushing the lungs three times with 1 mL of PBS. Lungs were then removed and frozen immediately in liquid nitrogen. Titres of infectious virus in lung homogenates were determined by standard plaque assay on MDCK cells.

[2] = cited from earlier work
HKx31 (H3N2) IAV [3] = system: HKx31 (H3N2) IAV; parameters: species or system C57BL/6 mice; conditions: mouse, in vivo; for IAV-associated lethality: 5 mg/kg
[4] = system: IL-6, MCP-1/CCL2, IFNγ, IL-10, IL-12p70, TNFα, IFNα, IFNβ, IFN λ2/3; assay: Quantification of cytokines in mouse BAL fluid and sera (CBA, ELISA); format: in vivo, C57BL/6 mice; conditions: day 4 post-infection
Experimental: as §1
To detect cytokines, BAL fluid was collected and stored at −80° C. Levels of IL-6, MCP-1/CCL2, IFNγ, IL-10, IL-12p70, and TNFα proteins were determined by cytokine bead array (CBA) using the mouse inflammation kit (Becton Dickinson). Levels of mouse IFNα were determined by sandwich ELISA using mouse monoclonal clone F18 (Thermo Scientific) and rabbit polyclonal antibodies (PBL) (Thomas et al., 2014). Levels of mouse IFNβ were determined by sandwich ELISA using mouse monoclonal clone 7F-D3 (Abcam) and rabbit polyclonal antibodies (PBL) (Thomas et al., 2014). Mouse IFN λ2/3 was quantified by ELISA (R&D Systems).

HKx31 (H3N2) IAV [5] = assay: Assessment of lung oedema and vascular leakage; parameters: species or system C57BL/6 mice; conditions: mouse, in vivo
HKx31 = HKx31 infection of human PBECs, infectious virus in cell supernatants; format: cell-based; conditions: 24 hours following HKx31 infection
[6] = system: respiratory tract infection by a virus; assay: Case studies: oral AOD9604 in subjects with flu-like symptoms; format: in vivo, human
Excerpt: The subject is a person who presented with flu-like symptoms. The subject reported to have been free of flu-like symptoms over the past 8 years.
The subject developed a very sore throat. On awakening the next day, the sore throat was more severe and their nose was running (rhinorrhea) and becoming worse throughout the day. Other symptoms that developed during the day included: • a persistent deep phlegmy cough; • high temperature; • body sweats; • chills; • muscle soreness; and • fatigue.
Later that evening, the subject developed a loss of appetite, and an exacerbation of chills, body sweats, rhinorrhoea and persistent coughing. At around 8 pm that evening, the subject was administered ˜1 mg AOD9604 (SEQ ID NO:2), orally.
The subject is a person who in the afternoon presented with the flu, with symptoms including a persistent deep phlegmy cough, high temperature, body sweats, chills, muscle soreness and fatigue. The subject was administered ˜1 mg AOD9604 (SEQ ID NO:2), orally. The subject recalls sleeping well that evening.

[7] = 20 mg/kg intranasal every 48 h
SARS-CoV-2 = SARS-CoV-2 infection of Vero cells, cytopathic effect inhibition assay; format: cell-based
[8] = daily therapeutic 20 mg/kg intranasal from day 1
[9] = prophylactic 20 mg/kg intranasal, every 48 h

H-CRSVEGSCGF-OH (cysteine pairing not given here; listed as Homo sapiens) [LAT9991F]
inflammatory Ly6C+ macrophages in the airways (BAL cells; [8]): significantly fewer
neutrophils in BAL (BAL cells; [8]): significantly fewer
numbers of macrophages in BAL (BAL cells; [8]): reduced numbers of macrophages
total BAL cellularity (BAL cells; [8]): significantly reduced
total numbers of dendritic cells (BAL cells; [8]): comparable to PBS-treated infected controls
reduction in levels of infectious virus in lung tissues (HKx31 (H3N2) IAV [1]): 2.4 fold
stability as metabolite in human serum [2]: known stable metabolite of LAT8881 in human serum
IAV-associated lethality (HKx31 (H3N2) IAV [3]): delayed IAV-associated lethality
TNFα levels in BAL fluid [4, 8]: less profound reduction
concentration of IFN λ2/3 in BAL fluid [4, 8]: not significantly different
concentration of IFNα in BAL fluid [4, 8]: not significantly different
concentration of IFNβ in BAL fluid [4, 8]: not significantly different
concentration of IL-10 in BAL fluid [4, 8]: not significantly different
concentration of IL-12p70 in BAL fluid [4, 8]: not significantly different
reduction of IFNγ in BAL fluid [4, 8]: 2.3 fold
reduction of IL-6 in the serum [4, 8]: approximately 1.6 fold
lung wet-to-dry ratios (HKx31 (H3N2) IAV [5]): no significant differences

CC[C@H](C)[C@H](NC(=O)[C@H](CCCNC(=N)N)NC(=O)[C@H](CC(C)C)NC(=O)[C@@H](N)Cc1ccc(O)cc1)C(=O)N[C@H](C(=O)N[C@@H](CCC(N)=O)C(=O)N[C@H]1CSSC[C@@H](C(=O)NCC(=O)N[C@@H](Cc2ccccc2)C(=O)O)NC(=O)[C@H](CO)NC(=O)CNC(=O)[C@H](CCC(=O)O)NC(=O)[C@H](C(C)C)NC(=O)[C@H](CO)NC(=O)[C@H](CCCNC(=N)N)NC1=O)C(C)C [LAT8881, H-YLRIVQCRSVEGSCGF-OH] (H-YLRIVQCRSVEGSCGF-OH; disulfide 7-14)
inflammatory Ly6C+ macrophages in the airways (BAL cells; [8]): significantly fewer
neutrophils in BAL (BAL cells; [8]): significantly fewer
total BAL cellularity (BAL cells; [8]): significantly reduced
total numbers of dendritic cells (BAL cells; [8]): comparable to PBS-treated infected controls
dendritic cells in the airways (BAL cells; [9]): no significant numerical difference
inflammatory Ly6C+ macrophages in the airways (BAL cells; [9]): no significant numerical difference
leukocyte cell death (Annexin V and PI staining of BAL cells) (BAL cells; [9]): no significant differences
macrophages in BAL (BAL cells; [9]): significantly fewer
neutrophils in BAL (BAL cells; [9]): significantly fewer
total BAL cellularity (BAL cells; [9]): significantly reduced
levels of infectious virus in cell supernatants (HKx31): no significant impact
reduction in levels of infectious virus in lung tissues (HKx31 (H3N2) IAV [1]): 1.5 fold
reduction in infectious viral loads in the lung (HKx31 (H3N2) IAV [1]; prophylactic: 20 mg/kg intranasal 24 h prior to infection, then every 48 h): 1.6 fold
remaining symptoms on waking about 7 hours later ([6]; Case study 1: ~1 mg orally): the only remaining symptoms were a runny nose and a slight cough
symptoms of the flu by the morning ([6]; Case study 2: ~1 mg orally): all symptoms of the flu had disappeared except for a slight runny nose and a dry cough
time until reported symptom-free ([6]; Case study 2: ~1 mg orally, after the morning following dosing): around 24 hours
alleviation of symptoms of respiratory tract infection (conclusion of case studies) ([6]; ~1 mg orally, two case studies): capable of alleviating the symptoms of respiratory tract infection by a virus
weight loss or clinical signs of disease in uninfected mice [7]: did not result in weight loss or any clinical signs of disease
SARS-CoV-2 infection of Vero cells (cytopathic effect inhibition) (SARS-CoV-2): did not alter SARS-CoV-2 infection of Vero cells
clinical signs of disease (weight loss, limited mobility, laboured breathing) (HKx31 (H3N2) IAV [3]): reduced clinical signs of disease including weight loss
delay of IAV-associated lethality (HKx31 (H3N2) IAV [3]): 48 to 72 h
onset of clinical signs of severe disease (weight loss, limited mobility, laboured breathing) (HKx31 (H3N2) IAV [3]): delayed the onset of clinical signs of severe disease
survival of mice (from 0% in PBS controls) (HKx31 (H3N2) IAV [3]): approximately 30%
IAV-associated lethality (HKx31 (H3N2) IAV [3]): delayed IAV-associated lethality
IL-6 in the BAL fluid [4, 8]: significantly reduced
TNFα levels in BAL fluid [4, 8]: less profound reduction
concentration of IFN λ2/3 in BAL fluid [4, 8]: not significantly different
concentration of IFNα in BAL fluid [4, 8]: not significantly different
concentration of IFNβ in BAL fluid [4, 8]: not significantly different
concentration of IL-10 in BAL fluid [4, 8]: not significantly different
concentration of IL-12p70 in BAL fluid [4, 8]: not significantly different
levels of CCL2 in BAL fluid [4, 8]: limited levels of CCL2
reduction of IFNγ in BAL fluid [4, 8]: 2 fold
reduction of IL-6 in the serum [4, 8]: approximately 1.6 fold
concentration of CCL2 in BAL fluid [4, 9]: comparable with PBS-treated IAV infected controls
concentration of IL-6 in BAL fluid [4, 9]: comparable with PBS-treated IAV infected controls
concentration of IL-10 in BAL fluid [4, 9]: comparable with PBS-treated IAV infected controls
concentration of IL-12p70 in BAL fluid [4, 9]: comparable with PBS-treated IAV infected controls
concentration of TNFα in BAL fluid [4, 9]: comparable with PBS-treated IAV infected controls
levels of IFN λ2/3 [4, 9]: no significant differences
levels of IFNα [4, 9]: no significant differences
levels of IFNβ [4, 9]: no significant differences
reduction of IFNγ in BAL fluid [4, 9]: 2 fold
reduction of IL-6 in the serum [4, 9]: 1.5 fold
BAL fluid protein concentrations (vascular leakage) (HKx31 (H3N2) IAV [5]): significantly reduced
lung wet-to-dry ratios (HKx31 (H3N2) IAV [5]): no significant differences
